{"source": "paper PMC10223470", "about": "(Molecules, 2023)", "key": {"[1]": {"target": "T1, human D2S receptor (Homo sapiens, UniProt P14416)", "T1 construct": "expressed in transfected cells; host or cells: CHO-K1", "T1 sequence (P14416 1-414 isoform P14416-2)": "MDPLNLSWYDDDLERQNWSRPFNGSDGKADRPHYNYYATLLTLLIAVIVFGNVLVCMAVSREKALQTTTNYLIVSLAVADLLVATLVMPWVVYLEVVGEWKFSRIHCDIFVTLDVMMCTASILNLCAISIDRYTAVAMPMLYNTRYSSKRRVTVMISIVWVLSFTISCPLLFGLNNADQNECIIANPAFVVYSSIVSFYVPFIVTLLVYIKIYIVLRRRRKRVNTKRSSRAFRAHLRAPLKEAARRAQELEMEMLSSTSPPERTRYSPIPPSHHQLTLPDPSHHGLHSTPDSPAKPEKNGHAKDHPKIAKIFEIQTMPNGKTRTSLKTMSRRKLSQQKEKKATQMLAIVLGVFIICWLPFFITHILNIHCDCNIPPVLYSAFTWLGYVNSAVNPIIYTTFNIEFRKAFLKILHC", "test": "Functional assays of cAMP signalling at D2 receptors (CHO-K1 cells, HTRF)", "format": "cell-based", "protocol": "The assessment of the activity of selected compounds at the D2 receptor was performed in cell-based functional assays of cAMP signaling, in the CHO-K1 cell line with stable expression of the cloned human D2S receptor, which was also employed for the radioligand binding assays. For D2 receptor antagonism, test compounds were dispensed into an empty 96-well plate (Isoplate-96 Black Frame White Well, PerkinElmer España SL, Madrid, Spain) with the use of the dispensing noncontact Echo 550 acoustic liquid handler (LABCYTE Inc., San Jose, CA, USA). Compounds were handled from frozen 10^−2 M stock solutions in 100% DMSO, from which serial 1000× solutions were prepared in 100% DMSO at the time of the assay, keeping vehicle concentration (0.1% DMSO) constant in the assay. Vials containing viable frozen cells were quickly thawed in a 37 °C water bath and cells were seeded into the assay plate in assay buffer (kit stimulation buffer containing 500 µM 3-isobutyl-1-methylxanthine (IBMX), which was directly added to the buffer as powder). […] After 10 min incubation at 37 °C, 10 µM forskolin was added to the corresponding wells, and incubation was continued for 5 min. After this time, cellular cAMP levels were quantified using the homogeneous time-resolved fluorescence (HTRF)-based cAMP Gs dynamic kit (Cisbio, Bioassays, Codolet, France) according to the manufacturer’s protocol. […] Basal cAMP levels were determined in control wells in the absence of compound, agonist, and forskolin."}, "[2]": {"tested_on": "mice", "test": "Motor coordination, rotarod test", "format": "in vivo", "conditions": "25, 50 and 75 mg/kg i.p., 60 min before testing", "protocol": "The experiments were carried out on 6 weeks old naive Swiss male mice (Experimental Medicine Center (OMD), Lublin, Poland), weighing 28–30 g. The cages with mice were located in air-conditioned rooms maintaining the ambient temperature within the range of 23–25 °C. The animals were provided with a natural 12 h day/night cycle, replicating the day and night mode. Each testing group was represented by 8–10 animals, depending on the research schedule. All experiments were conducted according to the National Institute of Health Guidelines for the Care and Use of Laboratory Animals (8th edition) and to the European Community Council Directive for the Care and Use of Laboratory Animals of 22 September 2010 (2010/63/EU) and were approved by the Local Ethical Committee (number of ethical approval: 147/2018). Compound 17 (25, 50, 75 mg/kg) was suspended in 1% Tween 80 in saline solution and was administered intraperitoneally (i.p.) 60 min before the test. […] Imipramine hydrochloride (30 mg/kg, Sigma-Aldrich was administered intraperitoneally (i.p.) 60 min before the test. […] Sigma-Aldrich, USA) was given subcutaneously (s.c.). Prior to administration, the agent was dissolved in saline and injected 30 min before the test. […] Motor coordination has been assessed in mice using the chimney test and the rotarod test, according to the procedure we had used before. […]"}, "[3]": {"target": "T2, human 5-HT1A receptor (Homo sapiens, UniProt P08908)", "T2 construct": "expressed in transfected cells; host or cells: HEK293", "T2 sequence (P08908 1-422)": "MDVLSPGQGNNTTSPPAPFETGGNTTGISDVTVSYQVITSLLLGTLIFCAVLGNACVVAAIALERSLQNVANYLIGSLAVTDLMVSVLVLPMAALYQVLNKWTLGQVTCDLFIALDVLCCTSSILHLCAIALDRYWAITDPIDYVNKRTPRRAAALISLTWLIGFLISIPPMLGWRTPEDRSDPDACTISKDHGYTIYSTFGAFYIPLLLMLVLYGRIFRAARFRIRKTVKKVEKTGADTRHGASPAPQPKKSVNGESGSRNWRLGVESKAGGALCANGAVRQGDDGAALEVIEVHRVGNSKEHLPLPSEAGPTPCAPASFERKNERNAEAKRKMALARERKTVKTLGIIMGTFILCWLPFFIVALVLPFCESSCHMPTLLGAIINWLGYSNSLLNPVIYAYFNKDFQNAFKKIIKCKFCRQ", "test": "Competition radioligand binding at human 5-HT1A receptor ([3H]-8-OH-DPAT)", "conditions": "mean ± SEM of 2 independent experiments, read-out: hu5-HT1A % inh. at 10 µM", "protocol": "(§1) Competition radioligand binding assays were performed on membranes isolated from cell lines stably expressing the cloned human receptors, which were either in-house or commercially available. […] Assays (250 μL assay final volume) were carried out in 96-well polypropylene plates in duplicate. In short, the suspension of appropriate membrane protein was incubated in an assay buffer with the addition of the corresponding radioligand, in the presence or absence of a tested compound or reference compound. […] After the incubation, the content of the test plates was transferred to 96 well plates with glass fiber filter GF/B or GF/C, previously pretreated with polyethyleneimine (PEI), and rapidly filtered with the use of vacuum, followed by rapid washing with cold (4 °C) wash buffer. After that, the filter plates were dried at 60 °C for 1 h. Then, 30 μL of liquid scintillation cocktail (UniverSol-ES, MP Biomedicals, Solon, OH, USA) was added to each well of the filter plates, and the radioactivity was measured in a MicroBeta^2 microplate scintillation counter (PerkinElmer, Madrid, Spain).\n(§2) Competition binding curves were fitted to a one-site competition binding model (Fit Ki) with the use of Prism 7 software (GraphPad, San Diego, CA, USA). logKi (log of the equilibrium dissociation constant (Ki)) values were obtained after constraining the concentration of radioligand employed in the assay and its dissociation constant (KD) as determined in saturation radioligand binding assays."}, "[4]": {"target": "T3, human dopamine D1 receptor (Homo sapiens, UniProt P21728)", "T3 construct": "expressed in transfected cells; host or cells: CHO-K1", "T3 sequence (P21728 whole entry)": "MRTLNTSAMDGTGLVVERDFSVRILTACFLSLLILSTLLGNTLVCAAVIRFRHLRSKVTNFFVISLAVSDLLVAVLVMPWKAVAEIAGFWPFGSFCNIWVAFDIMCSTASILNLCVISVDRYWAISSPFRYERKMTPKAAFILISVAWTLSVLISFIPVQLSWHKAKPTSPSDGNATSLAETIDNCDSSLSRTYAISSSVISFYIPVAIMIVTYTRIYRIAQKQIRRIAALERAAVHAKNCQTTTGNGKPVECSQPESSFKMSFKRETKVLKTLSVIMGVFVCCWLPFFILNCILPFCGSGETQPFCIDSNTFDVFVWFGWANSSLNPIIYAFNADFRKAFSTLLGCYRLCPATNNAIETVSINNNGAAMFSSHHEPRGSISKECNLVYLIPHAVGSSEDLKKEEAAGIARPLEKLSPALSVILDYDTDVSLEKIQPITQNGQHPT", "test": "Competition radioligand binding at human D1 receptor ([3H]-SCH-23390)", "conditions": "mean ± SEM of 2 independent experiments, read-out: huD1 % inh. at 10 µM", "protocol": "as §1, §2"}, "[5]": {"target": "T1, human D2S receptor", "test": "Competition radioligand binding at human D2 receptor ([3H]-Spiperone, CHO-K1 membranes)", "conditions": "mean ± SEM of 2–3 independent experiments in duplicate; read-out: huD2 Ki", "protocol": "Experiments were carried out in membranes isolated from a CHO-K1 cell line stably overexpressing the cloned human D2S receptor.\nas §1, §2"}}, "data": [{"compound": "O=C(CCN1C(=O)CSc2ccccc21)Nc1ccc(Cl)cc1", "note": "[Compound 17, N-(4-Chlorophenyl)-3-(3-oxo-2,3-dihydro-4H-benzo[b][1,4]thiazin-4-yl)propanamide]", "values": [{"measurement": "Kb", "setting": "[1]; antagonism of 1 µM dopamine response, forskolin-stimulated cAMP, three independent experiments, read-out: D2 Signalling (cAMP) pKb (Mean ± SEM) (converted)", "value": 26.9, "unit": "nM"}, {"measurement": "efficacy at D2 receptor (mode of action)", "setting": "[1]; cAMP signaling, CHO-K1 cells", "value": "antagonism"}, {"measurement": "effect on behavior in the rotarod test", "setting": "[2]", "value": "did not influence mice behavior"}, {"measurement": "inhibition at 10 µM", "setting": "[3]", "value": "29 ± 9", "unit": "%"}, {"measurement": "inhibition at 10 µM", "setting": "[4]", "value": "21 ± 2", "unit": "%"}, {"measurement": "Ki", "setting": "[5]", "value": "381 ± 48", "unit": "nM"}]}]}
